Measurements reported in PubChem BioAssay (NCI).
Several values for one entry are separate records, joined by “and”; a condition that tells them apart may be missing. Identical values can stand only once.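 Each compound was tested at five concentrations against cells in 96-well plates for 48 hours. GI50 is the concentration that inhibits growth by half. TGI: concentration producing complete growth inhibition.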

Columns and labels:
Assay in all cases: inhibition of tumour cell growth, NCI panel, 48 h
PC-3 prostate = tested on: PC-3 prostate
TK-10 renal = tested on: TK-10 renal
UACC-62 melanoma = tested on: UACC-62 melanoma
HS 578T breast = tested on: HS 578T breast
SNB-75 CNS = tested on: SNB-75 CNS
OVCAR-5 ovarian = tested on: OVCAR-5 ovarian
SK-MEL-28 melanoma = tested on: SK-MEL-28 melanoma
M14 melanoma = tested on: M14 melanoma
RXF 393 renal = tested on: RXF 393 renal
KM12 colon = tested on: KM12 colon
SN12C renal = tested on: SN12C renal
786-0 renal = tested on: 786-0 renal
U251 CNS = tested on: U251 CNS
NCI-H226 lung = tested on: NCI-H226 lung
SF-539 CNS = tested on: SF-539 CNS
OVCAR-8 ovarian = tested on: OVCAR-8 ovarian
OVCAR-4 ovarian = tested on: OVCAR-4 ovarian
SR leukemia = tested on: SR leukemia
SK-MEL-5 melanoma = tested on: SK-MEL-5 melanoma
HOP-62 NSCLC = tested on: HOP-62 NSCLC
MALME-3M melanoma = tested on: MALME-3M melanoma
MCF7 breast = tested on: MCF7 breast
SK-MEL-2 melanoma = tested on: SK-MEL-2 melanoma
T-47D breast = tested on: T-47D breast
OVCAR-3 ovarian = tested on: OVCAR-3 ovarian
NCI/ADR-RES ovarian = tested on: NCI/ADR-RES ovarian
SF-295 CNS = tested on: SF-295 CNS
RPMI-8226 leukemia = tested on: RPMI-8226 leukemia
BT-549 breast = tested on: BT-549 breast
MOLT-4 leukemia = tested on: MOLT-4 leukemia
K-562 leukemia = tested on: K-562 leukemia
NCI-H460 lung = tested on: NCI-H460 lung
SK-OV-3 ovarian = tested on: SK-OV-3 ovarian
DU-145 prostate = tested on: DU-145 prostate
CCRF-CEM leukemia = tested on: CCRF-CEM leukemia
SNB-19 CNS = tested on: SNB-19 CNS
NCI-H522 lung = tested on: NCI-H522 lung
HT29 colon = tested on: HT29 colon
IGROV1 ovarian = tested on: IGROV1 ovarian
ACHN renal = tested on: ACHN renal
A498 renal = tested on: A498 renal
HL-60(TB) leukemia = tested on: HL-60(TB) leukemia
HCC-2998 colon = tested on: HCC-2998 colon
MDA-MB-231 breast = tested on: MDA-MB-231 breast
UACC-257 melanoma = tested on: UACC-257 melanoma
HCT-116 colon = tested on: HCT-116 colon
HCT-15 colon = tested on: HCT-15 colon
NCI-H23 lung = tested on: NCI-H23 lung
SF-268 CNS = tested on: SF-268 CNS
MDA-MB-435 = tested on: MDA-MB-435
COLO 205 colon = tested on: COLO 205 colon
A549 NSCLC = tested on: A549 NSCLC
UO-31 renal = tested on: UO-31 renal
SW-620 colon = tested on: SW-620 colon
CAKI-1 renal = tested on: CAKI-1 renal
LOX IMVI melanoma = tested on: LOX IMVI melanoma
EKVX NSCLC = tested on: EKVX NSCLC
HOP-92 NSCLC = tested on: HOP-92 NSCLC

SMILES: C[C@@]1(C(=O)Nc2ccc(F)nc2)CCCN1c1nc(Nc2cc(C3CC3)[nH]n2)c2cccn2n1
- GI50 (PC-3 prostate): 989 nM and 1410 nM
- TGI (PC-3 prostate): > 7620 nM and 23500 nM
- GI50 (TK-10 renal): 1570 nM and 593 nM
- TGI (TK-10 renal): > 10000 nM and 8380 nM
- GI50 (UACC-62 melanoma): 388 nM and 2100 nM
- TGI (UACC-62 melanoma): > 2120 nM and 18700 nM
- GI50 (HS 578T breast): 631 nM and 2560 nM
- TGI (HS 578T breast): 3190 nM and 8610 nM
- GI50 (SNB-75 CNS): 138 nM and 1240 nM
- GI50 (OVCAR-5 ovarian): 225 nM and 455 nM
- TGI (OVCAR-5 ovarian): > 2770 nM and 15500 nM
- GI50 (SK-MEL-28 melanoma): 11800 nM
- TGI (SK-MEL-28 melanoma): > 3920 nM and 25700 nM
- GI50 (M14 melanoma): 624 nM and 2500 nM
- TGI (M14 melanoma): > 2850 nM and 20500 nM
- GI50 (RXF 393 renal): 396 nM and 1440 nM
- TGI (RXF 393 renal): 1260 nM and 7110 nM
- GI50 (KM12 colon): 53.3 nM and 125 nM
- TGI (KM12 colon): 467 nM and 817 nM
- GI50 (SN12C renal): 877 nM and 3550 nM
- TGI (SN12C renal): > 6620 nM and 18300 nM
- GI50 (786-0 renal): 855 nM and 2780 nM
- TGI (786-0 renal): > 4290 nM and 17700 nM
- GI50 (U251 CNS): 1740 nM and 4920 nM
- TGI (U251 CNS): > 7390 nM and 20600 nM
- GI50 (NCI-H226 lung): 248 nM and 651 nM
- TGI (NCI-H226 lung): 1900 nM and 7910 nM
- GI50 (SF-539 CNS): 820 nM and 2470 nM
- TGI (SF-539 CNS): > 2450 nM and 16300 nM
- GI50 (OVCAR-8 ovarian): 1770 nM and 5990 nM
- TGI (OVCAR-8 ovarian): > 10000 nM and 21100 nM
- GI50 (OVCAR-4 ovarian): 1340 nM and 3200 nM
- TGI (OVCAR-4 ovarian): > 3380 nM and 26700 nM
- TGI (SR leukemia): > 2530 nM and 15700 nM
- GI50 (SK-MEL-5 melanoma): 3820 nM
- TGI (SK-MEL-5 melanoma): > 2150 nM and 17500 nM
- GI50 (HOP-62 NSCLC): 404 nM and 1710 nM
- TGI (HOP-62 NSCLC): > 5170 nM and 15400 nM
- GI50 (MALME-3M melanoma): 11700 nM
- TGI (MALME-3M melanoma): > 4480 nM and 29400 nM
- GI50 (MCF7 breast): 44.5 nM and 30.5 nM
- TGI (MCF7 breast): > 2690 nM and 15200 nM
- GI50 (SK-MEL-2 melanoma): 631 nM and 2640 nM
- TGI (SK-MEL-2 melanoma): > 2290 nM and 18800 nM
- GI50 (T-47D breast): 1200 nM and 7470 nM
- TGI (T-47D breast): > 3530 nM and 27200 nM
- GI50 (OVCAR-3 ovarian): 8730 nM
- TGI (OVCAR-3 ovarian): > 3400 nM and 22300 nM
- GI50 (NCI/ADR-RES ovarian): 3990 nM and 4990 nM
- TGI (NCI/ADR-RES ovarian): > 10000 nM and 25900 nM
- GI50 (SF-295 CNS): 472 nM and 841 nM
- TGI (SF-295 CNS): 3200 nM and 6780 nM
- GI50 (RPMI-8226 leukemia): 7860 nM
- TGI (RPMI-8226 leukemia): > 2890 nM and 42100 nM
- GI50 (BT-549 breast): 832 nM and 3060 nM
- TGI (BT-549 breast): > 2460 nM and 14200 nM
- GI50 (MOLT-4 leukemia): 7880 nM
- TGI (MOLT-4 leukemia): > 3390 nM and 58700 nM
- TGI (K-562 leukemia): > 10000 nM and 56600 nM
- GI50 (NCI-H460 lung): 184 nM and 288 nM
- TGI (NCI-H460 lung): > 3070 nM and 14300 nM
- GI50 (SK-OV-3 ovarian): 950 nM and 6120 nM
- TGI (SK-OV-3 ovarian): > 4910 nM and 22200 nM
- GI50 (DU-145 prostate): 1030 nM and 2570 nM
- TGI (DU-145 prostate): > 4000 nM and 16400 nM
- GI50 (CCRF-CEM leukemia): 378 nM and 574 nM
- TGI (CCRF-CEM leukemia): > 100000 nM
- GI50 (SNB-19 CNS): 12300 nM
- TGI (SNB-19 CNS): > 10000 nM and 37300 nM
- GI50 (NCI-H522 lung): 1190 nM and 4000 nM
- TGI (NCI-H522 lung): > 2540 nM and 20900 nM
- GI50 (HT29 colon): 4.43 nM and 10.3 nM
- TGI (HT29 colon): > 10000 nM and 1840 nM
- GI50 (IGROV1 ovarian): 514 nM and 1710 nM
- TGI (IGROV1 ovarian): > 3870 nM and 16500 nM
- GI50 (ACHN renal): 849 nM and 3360 nM
- TGI (ACHN renal): > 3470 nM and 26100 nM
- GI50 (A498 renal): 194 nM and 927 nM
- TGI (A498 renal): 896 nM and 3990 nM
- GI50 (HL-60(TB) leukemia): 9.05 nM
- TGI (HL-60(TB) leukemia): > 2060 nM
- GI50 (HCC-2998 colon): 1060 nM and 6270 nM
- TGI (HCC-2998 colon): > 4700 nM and 22700 nM
- GI50 (MDA-MB-231 breast): 786 nM and 3110 nM
- TGI (MDA-MB-231 breast): > 10000 nM and 15100 nM
- GI50 (UACC-257 melanoma): 211 nM and 120 nM
- TGI (UACC-257 melanoma): > 4460 nM and 16500 nM
- GI50 (HCT-116 colon): 314 nM and 575 nM
- TGI (HCT-116 colon): > 2330 nM and 15900 nM
- GI50 (HCT-15 colon): 826 nM and 2120 nM
- TGI (HCT-15 colon): > 4910 nM and 36100 nM
- GI50 (NCI-H23 lung): 391 nM and 794 nM
- TGI (NCI-H23 lung): > 4930 nM and 19800 nM
- GI50 (SF-268 CNS): 631 nM and 2560 nM
- TGI (SF-268 CNS): > 2570 nM and 15600 nM
- TGI (MDA-MB-435): > 5420 nM and 23600 nM
- GI50 (COLO 205 colon): 9.29 nM and 50.1 nM
- TGI (COLO 205 colon): 236 nM and 321 nM
- GI50 (A549 NSCLC): 259 nM and 384 nM
- TGI (A549 NSCLC): > 10000 nM and 22900 nM
- GI50 (UO-31 renal): 458 nM and 2780 nM
- TGI (UO-31 renal): > 4380 nM and 16000 nM
- GI50 (SW-620 colon): 214 nM and 342 nM
- TGI (SW-620 colon): > 10000 nM and 23400 nM
- GI50 (CAKI-1 renal): 565 nM and 725 nM
- TGI (CAKI-1 renal): > 2290 nM and 7000 nM
- GI50 (LOX IMVI melanoma): 346 nM and 1100 nM
- TGI (LOX IMVI melanoma): > 2040 nM and 12200 nM
- GI50 (EKVX NSCLC): 417 nM and 1210 nM
- TGI (EKVX NSCLC): > 4230 nM and 17100 nM
- GI50 (HOP-92 NSCLC): 11.9 nM and < 10 nM
- TGI (HOP-92 NSCLC): 672 nM and 200 nM
